Test results reported in US20100215638A1, “METHOD FOR TREATMENT OF PROSTATE CANCER AND SCREENING OF PATIENTS BENEFITING FROM SAID METHOD” (VALTION TEKNILLINEN TUTKIMUSKESKUS, priority 2006, published 2010).
Read-outs that look alike come from different tables or passages of the source.

Columns and labels:
Type in all cases: cell-based, human
[1] = test system: ERG-positive prostate cancer cell line VCaP; test: Bead-array gene expression with GSEA of MSigDB pathways
Method: Gene expression analysis by bead-arrays. Early passage VCaP and LNCaP cells were grown to approximately 70% confluence before treatments with 300 nM trichostatin A (Sigma) or 500 nM MS-275 (Sigma) for 6 and 12 hours. For androgen ablation, the cells were plated in androgen-deprived medium. 300 nM trichostatin A (Sigma) or 500 nM MS-275 (Sigma) were added for 6 hours and 12 hours before harvesting. Hormone-replacement treatment was performed by supplementing the full RPMI 1640 medium with 10% charcoal-stripped serum. Total RNA was extracted according to the manufacturer's protocol using Trizol reagent (Invitrogen, Carlsbad, Calif.). Integrity of the RNA prior to hybridization was monitored using a Bioanalyzer 2100 (Agilent, Santa Clara, Calif.) (according to manufacturer's instruction). […] The arrays were scanned with the BeadArray Reader (Illumina).
Statistical analysis. The raw data was quantile-normalized and analyzed by using the R/Bioconductor software (http://www.r-project.org/, http://www.bioconductor.org/). Mean for ERG signature genes for at least two replicates per condition was calculated and the treatment values were extracted from controls to illustrate the fold changes presented on Table 5. […]

ERG gene signature = test: Bead-array gene expression with GSEA of ERG gene signature reversal; settings: 12 h treatment, 300 nM TSA or 500 nM MS-275
Method: Gene expression analysis by bead-arrays. Early passage VCaP and LNCaP cells were grown to approximately 70% confluence before treatments with 300 nM trichostatin A (Sigma) or 500 nM MS-275 (Sigma) for 6 and 12 hours. For androgen ablation, the cells were plated in androgen-deprived medium. 300 nM trichostatin A (Sigma) or 500 nM MS-275 (Sigma) were added for 6 hours and 12 hours before harvesting. Hormone-replacement treatment was performed by supplementing the full RPMI 1640 medium with 10% charcoal-stripped serum. Total RNA was extracted according to the manufacturer's protocol using Trizol reagent (Invitrogen, Carlsbad, Calif.). Integrity of the RNA prior to hybridization was monitored using a Bioanalyzer 2100 (Agilent, Santa Clara, Calif.) (according to manufacturer's instruction). 500 ng of purified total RNA was amplified with the TotalPrep Kit (Ambion, Austin, Tex.) and the biotin labelled cRNA was hybridized to Sentrix HumanRef-8 Expression BeadChips (Illumina, San Diego, Calif.). The arrays were scanned with the BeadArray Reader (Illumina).
Statistical analysis. The raw data was quantile-normalized and analyzed by using the R/Bioconductor software (http://www.r-project.org/, http://www.bioconductor.org/). Mean for ERG signature genes for at least two replicates per condition was calculated and the treatment values were extracted from controls to illustrate the fold changes presented on Table 5. Gene set enrichment analysis (GSEA) was performed for the HDAC inhibitor treatment and androgen ablation data with the GSEA software v2.0.1 (http://www.broad.mit.edu/gsea/). Our own previously defined ERG gene signature was used to evaluate the statistical significance of the signature reversal by HDAC inhibitors and androgen ablation (Table 6.). MSigDB gene sets were used for studying the pathways affected by HDAC inhibitors TSA and MS-275 in ERG-positive prostate cancer cell line VCaP (FIGS. 12 and 13).

[2] = test system: DuCaP prostate cancer cell; test: Cell titer blue assay of cell number after TSA treatment; settings: 48 h incubation, 384-well plates 2000 cells/well
Method: (§1) FIG. 6. Analysis of the effect of Trichostatin A (TSA) treatment on VCaP and DuCaP prostate cancer cell number by using cell titer blue assay. Briefly, cells were plated in low concentration on 384-well plates (2000 cells/well) and let to attach overnight. Drug containing medium was added and CTB assay measurement with Envision Plate reader were done after 48 h incubation. […] For drawing the figure, cell culture medium only containing well intensities were extracted from actual measurements. Each data point is represented by the mean value of three independent measurements (mean+S.D.). Drug concentrations are presented on x-axis and relative cell number (control level set to 1) on y-axis. Statistical significance ([…]) of the differences between cell amounts in treated wells in comparison to untreated control wells is indicated with star using Student's t-test assuming that the data is unpaired and variance is unequal.

[3] = test system: VCaP prostate cancer cell; test: as above; settings: 48 h incubation, 384-well plates 2000 cells/well
Method: as §1

Nc1ccccc1NC(=O)c1ccc(CNC(=O)OCc2cccnc2)cc1 [MS-275]
effect on pathways associated to ERG-positive prostate tumors [1]: reverses the pathways associated to ERG-positive prostate tumors

CC(/C=C/C(=O)NO)=C\[C@@H](C)C(=O)c1ccc(N(C)C)cc1 [TSA, Trichostatin A]
effect on pathways associated to ERG-positive prostate tumors ([1]; VCaP, GSEA with MSigDB gene sets): reverses the pathways associated to ERG-positive prostate tumors
ES (Enrichement score) (ERG gene signature): −0.75
Gene set (number of genes showing core enrichment/total number of genes in the ERG gene set) (ERG gene signature): 29/47
NES (Normalized enrichment score) (ERG gene signature): −1.63
effect on cell number (relative cell number, cell titer blue assay) [2]: clear dose dependent growth inhibition
effect on cell number (relative cell number, cell titer blue assay) ([2]; listed as Trichostatin A): strong responses
effect on cell number (relative cell number, cell titer blue assay) [3]: clear dose dependent growth inhibition
effect on cell number (relative cell number, cell titer blue assay) ([3]; listed as Trichostatin A): strong responses
